Measurements taken from publication PMC11842024, “Reversible male contraception by targeted inhibition of serine/threonine kinase 33” (Science (New York, N.Y.), 2024).

How the values were obtained:
Type in all cases: cell-based
STK33 = STK33 (Homo sapiens, UniProt Q9BYT3); test: NanoBRET target engagement intracellular kinase assay; set-up: host or cells: HEK293 (HEK293T cultured)
Description: NanoBRET Target Engagement intracellular kinase assay. HEK293T cells were cultured in […]
The cell line underwent authentication by short tandem repeat (STR) profiling at Cytogenetics and Cell Authentication Core (CCAC) at MD Anderson Cancer Center. NanoBRET Target Engagement intracellular kinase assay, K-10 assay (Cat. # N2641), K-9 assay (Cat. # N2631), transfection reagent FuGENE HD (Cat. # E2311), transfection carrier DNA (Cat. # E4881), NanoLuc-STK33 fusion vector (Cat. # NV2111), NanoLuc-RET fusion vector (Cat. # NV1951), NanoLuc-CLK1 fusion vector (Cat. # NV1131), NanoLuc-CLK2 fusion vector (Cat. # NV1141), and NanoLuc-CLK4 fusion vector (Cat. # NV1151) were purchased from Promega. The measurement of test compound engagement with cellular target protein was performed in a 384-well format according to manufacturer’s instructions. HEK293 cells were transiently transfected with NanoLuc (STK33, RET, CLK1, CLK2, and CLK4) fusion vectors. After 36 hours of transfection, cells were treated with a fixed concentration of tracer (recommended by Promega) followed by compounds (inhibitors) for 2 hours of incubation. To determine the test compound […]
0.4 nM at a fixed tracer concentration. Staurosporine was measured in parallel as a positive control.
Freshly prepared NanoBRET Nano-Glo substrate plus extracellular NanoLuc inhibitor was then added to initiate the subsequent bioluminescence resonance energy transfer (BRET) measurements using a CLARIOstar Plus BMG LABTECH plate reader. Data analysis was done by measuring the ratio of acceptor emission to donor emission (BRET ratio) and normalized by subtracting no-tracer-control-background. IC50 values were obtained by nonlinear regression using a four-parameter equation in GraphPad Prism 7 (San Diego, CA).

PTK2B = biological target: T1, PTK2B (Homo sapiens, UniProt Q14289); test: NanoBRET K192 assay (Promega); conditions: HEK293 cells
T1 construct: against 192 full-length protein kinases in human embryonic kidney 293 (HEK293) cells; host or cells: HEK293
Description: (§1) NanoBRET Target Engagement K192 assay. HEK293 cells (ATCC) were cultured in DMEM (Gibco) + 10% FBS (Seradigm) and incubated in a humidified 37°C/5% CO2 incubator. The NanoBRET Target Engagement K192 Kinase Selectivity System (Promega) contains 192 unique transfection-ready NanoLuc/Kinase fusions, pre-diluted in either transfection carrier DNA or relevant cyclin DNA. These NanoLuc/Kinase fusion constructs were transfected into HEK293 cells using Fugene HD (Promega) according to the manufacturer’s protocol. Briefly, 10 µL of a 20 µg/mL DNA solution was added to white, TC-treated 96-well assay plates (Corning), followed by 30 µL of a diluted Fugene HD solution (20 µL Fugene/1 mL Opti-MEM). After transfection complex formation, HEK293 cells were resuspended at 3.3 × 105 c/mL in Opti-MEM + 1% FBS and added at a volume of 60 µL per well, to result in approximately 20000 cells/well. Cells were incubated in a humidified 37°C/5% CO2 incubator for 20 hours. Tracer K-10 (Promega) was prepared at a 100× concentration in DMSO (Sigma) and diluted to a working concentration of 10× in tracer dilution buffer (12.5 mM HEPES, 31.25% PEG400, pH 7.5) (Promega). Test compounds were prepared as concentrated stock solutions in DMSO and diluted in Opti-MEM to prepare 10× working stocks. Cells were equilibrated with test compounds and Tracer K-10 for 2 hours prior to BRET measurements. For target engagement analysis, Tracer K-10 was added to cells at one of 4 […]
(§2) manufacturer’s protocol. To measure BRET, NanoBRET NanoGlo Substrate and Extracellular NanoLuc Inhibitor (Promega) were added according to the manufacturer’s protocol, and filtered luminescence was measured on a GloMax Discover luminometer equipped with 450 nm BP filter (donor) and 600 nm LP filter (acceptor), using 0.5 s integration time. Milli-BRET units are calculated by multiplying the raw BRET units by 1000.
(§3) For Fractional Occupancy determination, the following equation was used:
(§4) % Occupancy = [1-(X-Z)/(Y-Z)]×100
(§5) Where X = BRET in the presence of the test compound and Tracer K10, Y = BRET in the presence of Tracer K10 only, and Z = Full occupancy, or BRET in the absence of the test compound and […]
(§6) Tracer K10. […]

NTRK1 = biological target: T2, NTRK1 (Homo sapiens, UniProt P04629); test: NanoBRET K192 assay (Promega); conditions: HEK293 cells
T2 construct: against 192 full-length protein kinases in human embryonic kidney 293 (HEK293) cells; host or cells: HEK293
Description: as §1, §2, §3, §4, §5, §6

PHKG1 = biological target: T3, PHKG1 (Homo sapiens, UniProt Q16816); test: NanoBRET K192 assay (Promega); conditions: HEK293 cells
T3 construct: against 192 full-length protein kinases in human embryonic kidney 293 (HEK293) cells; host or cells: HEK293
Description: as §1, §2, §3, §4, §5, §6

NTRK2 = biological target: T4, NTRK2 (Homo sapiens, UniProt Q16620); test: NanoBRET K192 assay (Promega); conditions: HEK293 cells
T4 construct: against 192 full-length protein kinases in human embryonic kidney 293 (HEK293) cells; host or cells: HEK293
Description: as §1, §2, §3, §4, §5, §6

GAK = biological target: T5, GAK (Homo sapiens, UniProt O14976); test: NanoBRET K192 assay (Promega); conditions: HEK293 cells
T5 construct: against 192 full-length protein kinases in human embryonic kidney 293 (HEK293) cells; host or cells: HEK293
Description: as §1, §2, §3, §4, §5, §6

EPHA1 = biological target: T6, EPHA1 (Homo sapiens, UniProt P21709); test: NanoBRET K192 assay (Promega); conditions: HEK293 cells
T6 construct: against 192 full-length protein kinases in human embryonic kidney 293 (HEK293) cells; host or cells: HEK293
Description: as §1, §2, §3, §4, §5, §6

MAP4K2 = biological target: T7, MAP4K2 (Homo sapiens, UniProt Q12851); test: NanoBRET K192 assay (Promega); conditions: HEK293 cells
T7 construct: against 192 full-length protein kinases in human embryonic kidney 293 (HEK293) cells; host or cells: HEK293
Description: as §1, §2, §3, §4, §5, §6

PHKG2 = biological target: T8, PHKG2 (Homo sapiens, UniProt P15735); test: NanoBRET K192 assay (Promega); conditions: HEK293 cells
T8 construct: against 192 full-length protein kinases in human embryonic kidney 293 (HEK293) cells; host or cells: HEK293
Description: as §1, §2, §3, §4, §5, §6

CSNK1G2 = biological target: T9, CSNK1G2 (Homo sapiens, UniProt P78368); test: NanoBRET K192 assay (Promega); conditions: HEK293 cells
T9 construct: against 192 full-length protein kinases in human embryonic kidney 293 (HEK293) cells; host or cells: HEK293
Description: as §1, §2, §3, §4, §5, §6

AAK1 = biological target: T10, AAK1 (Homo sapiens, UniProt Q2M2I8); test: NanoBRET K192 assay (Promega); conditions: HEK293 cells
T10 construct: against 192 full-length protein kinases in human embryonic kidney 293 (HEK293) cells; host or cells: HEK293
Description: as §1, §2, §3, §4, §5, §6

BMP2K = biological target: T11, BMP2K (Homo sapiens, UniProt Q9NSY1); test: NanoBRET K192 assay (Promega); conditions: HEK293 cells
T11 construct: against 192 full-length protein kinases in human embryonic kidney 293 (HEK293) cells; host or cells: HEK293
Description: as §1, §2, §3, §4, §5, §6

FER = biological target: T12, FER (Homo sapiens, UniProt P16591); test: NanoBRET K192 assay (Promega); conditions: HEK293 cells
T12 construct: against 192 full-length protein kinases in human embryonic kidney 293 (HEK293) cells; host or cells: HEK293
Description: as §1, §2, §3, §4, §5, §6

PTK2 = biological target: T13, PTK2 (Homo sapiens, UniProt Q05397); test: NanoBRET K192 assay (Promega); conditions: HEK293 cells
T13 construct: against 192 full-length protein kinases in human embryonic kidney 293 (HEK293) cells; host or cells: HEK293
Description: as §1, §2, §3, §4, §5, §6

FLT3 = biological target: T14, FLT3 (Homo sapiens, UniProt P36888); test: NanoBRET K192 assay (Promega); conditions: HEK293 cells
T14 construct: against 192 full-length protein kinases in human embryonic kidney 293 (HEK293) cells; host or cells: HEK293
Description: as §1, §2, §3, §4, §5, §6

STK4 = biological target: T15, STK4 (Homo sapiens, UniProt Q13043); test: NanoBRET K192 assay (Promega); conditions: HEK293 cells
T15 construct: against 192 full-length protein kinases in human embryonic kidney 293 (HEK293) cells; host or cells: HEK293
Description: as §1, §2, §3, §4, §5, §6

Sequence of STK33 (Q9BYT3 whole entry): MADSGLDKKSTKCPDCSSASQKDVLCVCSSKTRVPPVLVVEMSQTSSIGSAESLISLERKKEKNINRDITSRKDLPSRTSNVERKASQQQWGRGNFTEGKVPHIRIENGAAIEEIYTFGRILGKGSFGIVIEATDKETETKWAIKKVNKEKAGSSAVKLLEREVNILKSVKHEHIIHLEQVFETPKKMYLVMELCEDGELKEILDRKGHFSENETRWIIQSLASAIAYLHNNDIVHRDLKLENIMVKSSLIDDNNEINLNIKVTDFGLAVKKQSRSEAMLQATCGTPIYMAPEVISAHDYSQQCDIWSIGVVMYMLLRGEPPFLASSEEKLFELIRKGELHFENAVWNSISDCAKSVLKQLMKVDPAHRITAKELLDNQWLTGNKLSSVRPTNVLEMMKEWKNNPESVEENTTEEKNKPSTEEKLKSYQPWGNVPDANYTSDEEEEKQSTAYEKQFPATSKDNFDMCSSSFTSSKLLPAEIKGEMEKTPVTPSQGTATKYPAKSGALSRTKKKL
T13 sequence (Q05397 whole entry): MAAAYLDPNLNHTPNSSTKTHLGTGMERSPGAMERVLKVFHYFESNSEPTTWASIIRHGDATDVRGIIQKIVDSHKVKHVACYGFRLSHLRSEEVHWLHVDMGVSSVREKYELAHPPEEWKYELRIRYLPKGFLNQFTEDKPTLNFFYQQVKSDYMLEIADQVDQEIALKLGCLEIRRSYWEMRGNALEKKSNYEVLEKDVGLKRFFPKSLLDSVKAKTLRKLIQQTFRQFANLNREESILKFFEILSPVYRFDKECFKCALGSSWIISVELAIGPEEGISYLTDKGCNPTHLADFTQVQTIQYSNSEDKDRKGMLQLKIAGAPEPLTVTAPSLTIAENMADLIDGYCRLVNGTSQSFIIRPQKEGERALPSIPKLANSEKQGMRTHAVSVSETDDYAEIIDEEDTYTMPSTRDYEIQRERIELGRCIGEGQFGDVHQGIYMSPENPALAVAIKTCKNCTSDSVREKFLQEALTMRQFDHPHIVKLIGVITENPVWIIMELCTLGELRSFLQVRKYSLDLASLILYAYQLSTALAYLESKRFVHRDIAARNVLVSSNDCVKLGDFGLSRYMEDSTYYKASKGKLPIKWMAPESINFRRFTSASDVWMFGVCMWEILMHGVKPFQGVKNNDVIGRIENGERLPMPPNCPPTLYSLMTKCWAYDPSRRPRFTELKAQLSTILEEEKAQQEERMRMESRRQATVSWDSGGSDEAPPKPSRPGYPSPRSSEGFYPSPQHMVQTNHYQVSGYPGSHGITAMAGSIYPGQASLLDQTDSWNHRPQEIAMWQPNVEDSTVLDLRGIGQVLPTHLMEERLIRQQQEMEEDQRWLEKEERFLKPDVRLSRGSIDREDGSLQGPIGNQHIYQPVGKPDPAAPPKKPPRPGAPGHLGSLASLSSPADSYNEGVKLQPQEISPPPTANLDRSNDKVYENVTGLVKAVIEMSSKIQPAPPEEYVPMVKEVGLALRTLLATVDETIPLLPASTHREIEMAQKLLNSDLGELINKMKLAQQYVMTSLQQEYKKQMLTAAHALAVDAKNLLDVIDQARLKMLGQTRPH
T6 sequence (P21709 26-976): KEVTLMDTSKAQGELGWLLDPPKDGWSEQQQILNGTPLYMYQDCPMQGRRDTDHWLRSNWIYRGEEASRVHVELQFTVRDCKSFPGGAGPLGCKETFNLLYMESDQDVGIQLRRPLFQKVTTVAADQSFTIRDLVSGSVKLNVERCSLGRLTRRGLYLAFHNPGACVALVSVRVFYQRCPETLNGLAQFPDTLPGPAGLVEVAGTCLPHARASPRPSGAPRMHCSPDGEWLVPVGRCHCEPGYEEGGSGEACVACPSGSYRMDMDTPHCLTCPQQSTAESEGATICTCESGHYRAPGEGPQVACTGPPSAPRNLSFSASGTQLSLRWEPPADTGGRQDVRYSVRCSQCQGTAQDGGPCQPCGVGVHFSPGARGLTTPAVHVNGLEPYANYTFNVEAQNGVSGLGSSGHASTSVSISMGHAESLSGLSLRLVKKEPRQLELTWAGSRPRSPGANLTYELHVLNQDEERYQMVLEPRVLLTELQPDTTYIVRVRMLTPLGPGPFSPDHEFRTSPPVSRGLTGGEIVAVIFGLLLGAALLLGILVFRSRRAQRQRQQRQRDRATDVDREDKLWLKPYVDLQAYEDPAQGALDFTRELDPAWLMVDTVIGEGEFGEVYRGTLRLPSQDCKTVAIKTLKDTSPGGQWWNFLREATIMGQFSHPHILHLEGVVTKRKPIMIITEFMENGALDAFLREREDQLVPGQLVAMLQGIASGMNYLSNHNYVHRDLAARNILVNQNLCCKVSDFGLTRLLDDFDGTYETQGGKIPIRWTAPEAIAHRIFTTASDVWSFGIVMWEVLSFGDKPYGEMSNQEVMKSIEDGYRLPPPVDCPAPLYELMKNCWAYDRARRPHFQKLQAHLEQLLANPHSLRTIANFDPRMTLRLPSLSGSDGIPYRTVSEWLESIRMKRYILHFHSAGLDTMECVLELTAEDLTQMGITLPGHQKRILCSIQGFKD
T7 sequence (Q12851 whole entry): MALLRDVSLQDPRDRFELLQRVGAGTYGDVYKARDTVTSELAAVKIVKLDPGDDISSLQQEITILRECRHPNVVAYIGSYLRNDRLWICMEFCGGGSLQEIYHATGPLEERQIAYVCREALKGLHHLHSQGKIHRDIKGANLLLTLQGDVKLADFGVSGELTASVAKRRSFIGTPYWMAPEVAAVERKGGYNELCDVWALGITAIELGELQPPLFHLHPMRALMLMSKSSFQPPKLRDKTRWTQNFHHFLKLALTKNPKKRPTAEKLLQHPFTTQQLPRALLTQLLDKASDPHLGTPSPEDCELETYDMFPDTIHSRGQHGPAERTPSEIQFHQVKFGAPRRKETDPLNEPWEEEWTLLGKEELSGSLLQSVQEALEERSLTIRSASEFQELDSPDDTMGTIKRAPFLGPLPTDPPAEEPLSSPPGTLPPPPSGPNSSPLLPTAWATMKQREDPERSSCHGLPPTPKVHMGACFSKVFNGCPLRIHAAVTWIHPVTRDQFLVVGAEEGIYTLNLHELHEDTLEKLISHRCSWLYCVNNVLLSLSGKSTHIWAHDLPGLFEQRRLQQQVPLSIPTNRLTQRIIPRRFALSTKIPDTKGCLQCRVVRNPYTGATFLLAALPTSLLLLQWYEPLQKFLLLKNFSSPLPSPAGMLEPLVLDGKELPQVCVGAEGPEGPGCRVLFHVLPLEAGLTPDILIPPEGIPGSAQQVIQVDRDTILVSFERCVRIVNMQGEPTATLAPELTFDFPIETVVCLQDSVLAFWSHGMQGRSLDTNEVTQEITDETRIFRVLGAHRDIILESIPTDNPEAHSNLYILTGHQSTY
T4 sequence (Q16620 32-822): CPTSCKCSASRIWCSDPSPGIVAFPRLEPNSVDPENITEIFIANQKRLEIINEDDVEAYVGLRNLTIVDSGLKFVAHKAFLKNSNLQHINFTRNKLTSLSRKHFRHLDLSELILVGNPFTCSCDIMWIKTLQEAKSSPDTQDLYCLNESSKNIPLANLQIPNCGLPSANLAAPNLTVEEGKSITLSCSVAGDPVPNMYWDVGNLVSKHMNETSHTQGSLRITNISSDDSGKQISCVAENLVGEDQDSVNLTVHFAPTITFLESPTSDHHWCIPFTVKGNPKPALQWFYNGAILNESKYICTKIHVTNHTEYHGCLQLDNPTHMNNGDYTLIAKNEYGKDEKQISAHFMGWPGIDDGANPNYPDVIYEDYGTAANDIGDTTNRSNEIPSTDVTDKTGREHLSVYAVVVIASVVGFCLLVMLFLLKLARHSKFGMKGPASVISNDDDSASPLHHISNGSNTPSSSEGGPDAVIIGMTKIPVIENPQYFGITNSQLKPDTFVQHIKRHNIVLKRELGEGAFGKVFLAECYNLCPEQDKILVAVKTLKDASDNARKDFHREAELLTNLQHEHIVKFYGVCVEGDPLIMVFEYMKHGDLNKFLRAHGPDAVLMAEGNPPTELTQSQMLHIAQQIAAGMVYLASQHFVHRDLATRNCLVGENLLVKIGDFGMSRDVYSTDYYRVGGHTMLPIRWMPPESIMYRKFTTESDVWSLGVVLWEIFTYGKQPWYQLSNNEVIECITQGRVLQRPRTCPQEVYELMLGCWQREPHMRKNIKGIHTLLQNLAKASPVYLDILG
T3 sequence (Q16816 whole entry): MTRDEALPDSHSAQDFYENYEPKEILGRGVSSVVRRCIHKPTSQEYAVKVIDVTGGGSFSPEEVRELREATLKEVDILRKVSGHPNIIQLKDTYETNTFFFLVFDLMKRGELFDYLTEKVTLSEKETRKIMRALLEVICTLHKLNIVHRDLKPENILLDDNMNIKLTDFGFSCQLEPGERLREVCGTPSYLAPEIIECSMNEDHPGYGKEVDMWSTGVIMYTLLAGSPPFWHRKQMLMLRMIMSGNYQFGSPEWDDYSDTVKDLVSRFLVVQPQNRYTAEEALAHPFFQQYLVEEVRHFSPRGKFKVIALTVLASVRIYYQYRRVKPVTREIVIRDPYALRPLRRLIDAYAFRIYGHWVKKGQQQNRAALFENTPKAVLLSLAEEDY
T15 sequence (Q13043 whole entry): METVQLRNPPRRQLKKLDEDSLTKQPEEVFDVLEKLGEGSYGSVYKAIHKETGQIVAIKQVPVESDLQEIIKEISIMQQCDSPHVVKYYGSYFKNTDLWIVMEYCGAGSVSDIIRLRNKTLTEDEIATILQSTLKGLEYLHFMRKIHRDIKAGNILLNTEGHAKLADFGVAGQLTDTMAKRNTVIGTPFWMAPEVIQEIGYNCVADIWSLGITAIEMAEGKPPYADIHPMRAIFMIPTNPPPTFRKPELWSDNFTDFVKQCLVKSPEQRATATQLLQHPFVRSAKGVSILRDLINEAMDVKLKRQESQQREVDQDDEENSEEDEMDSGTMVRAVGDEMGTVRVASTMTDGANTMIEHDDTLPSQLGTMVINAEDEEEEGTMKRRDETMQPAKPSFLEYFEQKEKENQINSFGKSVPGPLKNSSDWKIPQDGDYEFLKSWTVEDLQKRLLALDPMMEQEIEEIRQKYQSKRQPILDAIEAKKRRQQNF

With O=C(c1ccc2[nH]nc(C#Cc3ccccc3-c3ccccc3)c2c1)N1CC2(CCCNC2)C1 [CDD-2807] the “selectivity toward STK33 compared to CLK1, CLK2, CLK4, and RET” value (STK33) was greater than 9 fold, the IC50 (STK33; HEK293 cells, 2 hours incubation) was 9.2 nM and the receptor occupancy at 1 µM (PTK2B) was 45.2 ± 0.2%. It also gave a receptor occupancy at 1 µM (NTRK1) of 31.8 ± 1%, a receptor occupancy at 1 µM (PHKG1) of 58.4 ± 2.9% and a receptor occupancy at 1 µM (NTRK2) of 44.5%. For the same compound, the receptor occupancy at 1 µM (GAK) was 57.4 ± 0.1%, the receptor occupancy at 1 µM (EPHA1) was 30.6 ± 2.4% and the receptor occupancy at 1 µM (MAP4K2) was 40 ± 0.6%. For the same compound, the receptor occupancy at 1 µM (PHKG2) was 59.2 ± 1.2%, the receptor occupancy at 1 µM (CSNK1G2) was 32.4 ± 1.3% and the receptor occupancy at 1 µM (AAK1) was 56.4 ± 1.3%. The receptor occupancy at 1 µM (BMP2K) was 54.5 ± 0.3%, the receptor occupancy at 1 µM (FER) was 38 ± 1.2% and the receptor occupancy at 1 µM (PTK2) was 76.5 ± 0.2%. The receptor occupancy at 1 µM (FLT3) was 30.3 ± 2.6% and the receptor occupancy at 1 µM (STK4) was 30.3 ± 0.4%.
